Test results as given in US20130123271A1, “HETEROCYCLIC COMPOUNDS, THEIR PREPARATION AND THERAPEUTIC APPLICATION” (FOVEA PHARMACEUTICALS, priority 2010, published 2013).
Values after ≈ are worked out from the molar mass of the structure shown.

What was measured:
[1] = biological target: h Src (Homo sapiens, UniProt P12931); experiment: LC3000 Src assay (off-chip incubation mobility-shift kinase assay, Caliper LabChip); format: biochemical; conditions: ATP at KM apparent
Experimental: The screening and profiling experiments described here were performed using Caliper Life Sciences' proprietary LabChip™ technology. Caliper LC3000 and EZ Reader II instruments are widely used throughout the drug discovery process for assay development, primary screening, selectivity screening, generation of Structure-Activity Relationships (SARs) and Mechanism of Action (MOA) studies. The LabChip™ technology is particularly well suited for enzymatic ‘targets’ such as kinases, proteases, phosphatases, histone deacetylases (HDAC), phosphodiesterases (PDE), and acyl-transferases. The key benefit of the technology is the separation and direct measurement of substrates and products, which allows for higher signal-to-noise ratios and fewer false positive/negative results. This direct measurement also allows for the identification and elimination of enzymatic activities that are not associated with the kinase reaction of interest.
The off-chip incubation mobility-shift kinase assay uses a microfluidic chip to measure the conversion of a fluorescent peptide substrate to a phosphorylated product. The reaction mixture, from a microtiter plate well, is introduced through a capillary sipper onto the chip, where the nonphosphorylated substrate and phosphorylated product are separated by electrophoresis and detected via laser-induced fluorescence. […] The phosphorylated product migrates through the chip faster than the non-phosphorylated substrate, and signals from the two forms of the peptide appear as distinct peaks. Caliper's data analysis software (HTSWA) determines peak heights, from which the ratio of product to the peak sum P/(P+S) and percent (%) conversion is calculated. This value is used to compare compound wells to control wells present on the plate, and thereby determine the % inhibition values for the compound. The formula used to calculate % inhibition is as follows, where C100% is the average % conversion of the 100% activity wells and C0% is the average % conversion of the 0% activity wells:
(1-(%conversionofsample—C0%)/(C100%−C0%))*100
Compounds were dissolved in 100% DMSO and diluted to 25× the final desired screening concentration. Serial dilutions were performed to obtain the concentrations specified for particular studies. One μl of each concentration was transferred, in duplicate, to a 384-well Greiner microtiter plate. Generally, 12 μL of enzyme buffer containing purified kinase (various suppliers), 100 mM HEPES, pH 7.5, 1 mM DTT (Calbiochem, 2333153), 10 mM MgCl2 (Sigma, M-1028) or 10 mM MnCl2 (Sigma, M-1787) (assay specific), and 0.002% Brij-35 (Sigma, B4184) was added to each well. Compound and enzyme were allowed to pre-incubate for 15 minutes. 12 μL of peptide/ATP buffer containing 100 mM HEPES, pH 7.5, 1.5 μM fluorescein-labeled peptide (specific to kinase of interest), ATP (at KM apparent, Sigma, A9187), and 0.002% Brij-35 was then added to each well to initiate the reaction. Generally, reactions were incubated for 1-1.5 hours at room temperature to obtain adequate (15-40%) conversion of peptide to phosphorylated product in the linear range of the reaction. Reactions were terminated with the addition of 45 μL of Stop Buffer (containing 20 mM EDTA). Plates were then read on the LabChip 3000 using a 12-sipper LabChip. % conversion values and % inhibition values were obtained as described and IC50 curves of compounds were generated using Graphpad Prism Version 4 or 5.01. A nonlinear curve fit using the sigmoidal dose response—variable slope fit was used to graph IC50 curves and determine IC50 values and hillslopes.

[2] = biological target: Src/Lyn (h) (Homo sapiens, UniProt P12931); experiment: In vitro potency Src/Lyn (h), Table 2; format: biochemical
[3] = Solubility in HPbCD 7% pH 5; format: physicochemical; conditions: HPbCD 7% solution, aqueous with cosolvent or surfactant or cyclodextrin, read-out: Solubility HPbCD 7% pH 5 (mg/ml) measured
[4] = Ussing chamber permeation study through rabbit cornea; format: in vitro ADME; conditions: 37° C., 0.5 cm2 rabbit cornea
Experimental: Ussing chambers were used for the permeation study each day of experiment.
3 mL of solution were placed in donor side of Ussing chambers and 3 mL of Ringer solution were in receiver side. Freshly removed rabbit corneal tissue were placed between the two half chambers.
Temperature was maintained at 37° C. during all the flux study and oxygenation was provided by a continuous perfusion of carbogen (oxygen/carbonic acid) (95/5),
Rabbits were euthanized and the 6 corneas were removed and used immediately. 500 μL of receptor side liquid were removed from Ussing chambers and replaced by fresh buffer. The samples were analyzed immediately (less than 10 hours after collection).
100 μL of donor side liquid were removed from Ussing chambers and not replaced. The samples were diluted immediately (less than 1 hour) after collection and analyzed less than 10 hours after dilution. Analysis was performed on HPLC (Stationary phase: C18 (Particle size: 3 μm Length: 5 cm, using a gradient from 5 to 95% ACN/water (0.1% formic acid)).
At the end of the sampling period, all corneas were discarded.

[5] = Colour of the compound; format: physicochemical; conditions: powder
[6] = system: choroidal neovascularisation; experiment: Rat model of laser-induced choroidal neovascularization (CNV); format: in vivo, rat (Brown Norway); conditions: topical solution 6 mg/mL (10 μL) two times daily, 14 days after laser induction
Experimental: We investigated the efficacy of topical administration of compound 25 of the invention in reducing choroidal neovascularisation in the rat (Brown Norway, 8 weeks of age).
On day 1, CNV was performed by laser photocoagulation-induced rupture of Bruch's membrane as previously described (Edelman and Casto 2000). An Argon green laser irradiation was delivered through the slit lamp for induce photocoagulation. In each eye, 6-7 focal laser spots were applied concentrically approximately two optic discs from the center. Immediately afterwards, rats were treated with topical solution 6 mg/mL (10 μL) two times daily until sacrifice. 14 days after laser induction of CNV blood vessels were visualized on retinal pigment epithelium-choroid-sclera flat-mount by immunostaining with isolectin B4.
Assessment of CNV response to treatment was performed after capture and area measurement of immunostained vessels representing CNV at the site of laser burn.
Pixel area of vascular budding was traced by 2 trained masked investigators and converted to μm^2.

Sequence of h Src (P12931 whole entry): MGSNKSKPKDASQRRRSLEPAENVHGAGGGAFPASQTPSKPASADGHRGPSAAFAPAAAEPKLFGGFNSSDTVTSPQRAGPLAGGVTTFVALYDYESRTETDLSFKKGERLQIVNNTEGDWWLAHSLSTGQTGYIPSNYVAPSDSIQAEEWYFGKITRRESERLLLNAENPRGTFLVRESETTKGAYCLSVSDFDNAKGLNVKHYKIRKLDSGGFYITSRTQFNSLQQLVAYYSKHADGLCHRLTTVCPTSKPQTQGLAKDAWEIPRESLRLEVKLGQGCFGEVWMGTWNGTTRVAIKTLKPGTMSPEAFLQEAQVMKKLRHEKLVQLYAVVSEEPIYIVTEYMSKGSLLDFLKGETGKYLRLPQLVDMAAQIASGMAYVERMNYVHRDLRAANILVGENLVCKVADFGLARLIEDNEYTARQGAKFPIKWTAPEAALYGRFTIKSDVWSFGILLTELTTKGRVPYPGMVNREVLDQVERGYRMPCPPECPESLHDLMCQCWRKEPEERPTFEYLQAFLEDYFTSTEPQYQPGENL
Sequence of Src/Lyn (h) (P12931 whole entry): as above

Q: With `OCCn1cnc2cc(Nc3ncc4cc(-c5cc(O)ccc5Cl)ccc4n3)ccc21` [Compound 45, 4-Chloro-3-{2-[1-(2-hydroxy-ethyl)-1H-benzoimidazol-5-ylamino]-quinazolin-6-yl}-phenol] as the molecule, how does the IC50 [1] read?
A: 0.5 nM

Q: And the IC50 [2]?
A: 1 nM

Q: What about the solubility [3] of the same molecule?
A: 2.3 mg/mL (≈ 5.33 mM)

Q: What about the “Flux between 2 and 4 hours through 0.5 cm2 of rabbit cornea (μg/h/cm2)” value [4] of the same molecule?
A: 8 μg/h/cm2

Q: What about the Colour [5] of the same molecule?
A: Pale

Q: What does the source list for `Cc1nc(Nc2nc3ccc(-c4cc(O)ccc4Cl)cn3n2)cc(N2CCN(CCO)CC2)n1` [Compound 27, 4-Chloro-3-(2-{6-[4-(2-hydroxy-ethyl)-piperazin-1-yl]-2-methyl-pyrimidin-4-ylamino}-[1,2,4]triazolo[1,5-a]pyridin-6-yl)-phenol]?
A: IC50 [1]: 83 nM; IC50 [2]: 83 nM; solubility [3]: > 10 mg/mL; Flux between 2 and 4 hours through 0.5 cm2 of rabbit cornea (μg/h/cm2) [4]: 19 μg/h/cm2; Colour [5]: White

Q: Which IC50 [1] does the source give for `OCc1cc(CO)cc(Nc2ncc3cc(-c4cc(O)ccc4Cl)ccc3n2)c1` [compound 16, 3-[2-(3,5-Bis-hydroxymethyl-phenylamino)-quinazolin-6-yl]-4-chloro-phenol] here?
A: 0.1 nM

Q: What about the IC50 [2] of the same molecule?
A: < 1 nM

Q: And the solubility [3]?
A: 1.2 mg/mL (≈ 2.94 mM)

Q: What about the “Flux between 2 and 4 hours through 0.5 cm2 of rabbit cornea (μg/h/cm2)” value [4] of the same molecule?
A: 17 μg/h/cm2

Q: What about the Colour [5] of the same molecule?
A: Pale

Q: Which results are given for `Cc1cc(Nc2nc3ccc(-c4cc(O)ccc4Cl)cn3n2)cc(N2CCN(CCO)CC2)c1` [Compound 28, 4-Chloro-3-(2-{3-[4-(2-hydroxy-ethyl)-piperazin-1-yl]-5-methyl-phenylamino}-[1,2,4]triazolo[1,5-a]pyridin-6-yl)-phenol]?
A: IC50 [1]: 3 nM; IC50 [2]: 3 nM; solubility [3]: 7.5 mg/mL (≈ 15.7 mM); Flux between 2 and 4 hours through 0.5 cm2 of rabbit cornea (μg/h/cm2) [4]: 8 μg/h/cm2; Colour [5]: White

Q: Which IC50 [1] does the source give for `Oc1ccc(Cl)c(-c2ccc3nc(Nc4ccc(OCCN5CCCC5)nc4)nn3c2)c1` [Compound 25, 4-Chloro-3-{2-[6-(2-pyrrolidin-1-yl-ethoxy)-pyridin-3-ylamino]-[1,2,4]triazolo[1,5-a]pyridin-6-yl}-phenol] here?
A: 23 nM

Q: And the IC50 [2]?
A: 23 nM

Q: And the solubility [3]?
A: 6.5 mg/mL (≈ 14.4 mM)

Q: What about the “Flux between 2 and 4 hours through 0.5 cm2 of rabbit cornea (μg/h/cm2)” value [4] of the same molecule?
A: 14 μg/h/cm2

Q: And the Colour [5]?
A: White

Q: What about the “reduction of CNV compared to control” value [6] of the same molecule?
A: 15%

Q: What does the source list for `OCc1cc(CO)cc(Nc2nc3ccc(-c4cc(O)ccc4Cl)cn3n2)c1` [compound 5, 3-[2-(3,5-Bis-hydroxymethyl-phenylamino)-[1,2,4]triazolo[1,5-a]pyridin-6-yl]-4-chloro-phenol]?
A: IC50 [1]: 5 nM; IC50 [2]: 5 nM; solubility [3]: 1.3 mg/mL (≈ 3.28 mM); Flux between 2 and 4 hours through 0.5 cm2 of rabbit cornea (μg/h/cm2) [4]: 13 μg/h/cm2; Colour [5]: White

Q: Which IC50 [1] does the source give for `OCc1cc(Nc2nc3ccc(-c4cc(O)ccc4Cl)cn3n2)ccn1` [compound 13, 4-Chloro-3-[2-(2-hydroxymethyl-pyridin-4-ylamino)-[1,2,4]triazolo[1,5-a]pyridin-6-yl]-phenol] here?
A: 27 nM

Q: What about the IC50 [2] of the same molecule?
A: 27 nM

Q: And the solubility [3]?
A: 2.38 mg/mL (≈ 6.47 mM)

Q: What about the “Flux between 2 and 4 hours through 0.5 cm2 of rabbit cornea (μg/h/cm2)” value [4] of the same molecule?
A: 13 μg/h/cm2

Q: What about the Colour [5] of the same molecule?
A: White

Q: Which results are given for `OCc1cc(Nc2ncc3cc(-c4cc(O)ccc4Cl)ccc3n2)ccn1` [Compound 43, 4-Chloro-3-[2-(2-hydroxymethyl-pyridin-4-ylamino)-quinazolin-6-yl]-phenol]?
A: IC50 [1]: 0.7 nM; IC50 [2]: 0.7 nM; solubility [3]: 1.5 mg/mL (≈ 3.96 mM); Flux between 2 and 4 hours through 0.5 cm2 of rabbit cornea (μg/h/cm2) [4]: 6 μg/h/cm2; Colour [5]: Pale

Q: For `Cc1cc(Nc2ncc3cc(-c4cc(O)ccc4Cl)ccc3n2)cc(N2CCN(CCO)CC2)c1` [Compound 46, 4-Chloro-3-(2-{3-[4-(2-hydroxy-ethyl)-piperazin-1-yl]-5-methyl-phenylamino}-quinazolin-6-yl)-phenol], which IC50 [1] is on record?
A: 0.8 nM

Q: And the IC50 [2]?
A: 0.8 nM

Q: What about the solubility [3] of the same molecule?
A: > 10 mg/mL

Q: And the “Flux between 2 and 4 hours through 0.5 cm2 of rabbit cornea (μg/h/cm2)” value [4]?
A: 13 μg/h/cm2

Q: And the Colour [5]?
A: Pale

Q: Which IC50 [1] does the source give for `OCCN1CCN(c2ccc(Nc3nc4ccc(-c5cc(O)ccc5Cl)cn4n3)cn2)CC1` [compound 10, 4-Chloro-3-(2-{6-[4-(2-hydroxy-ethyl)-piperazin-1-yl]-pyridin-3-ylamino}-[1,2,4]triazolo[1,5-a]pyridin-6-yl)-phenol] here?
A: 14 nM

Q: What about the IC50 [2] of the same molecule?
A: 14 nM

Q: And the solubility [3]?
A: 5.69 mg/mL (≈ 12.2 mM)

Q: And the “Flux between 2 and 4 hours through 0.5 cm2 of rabbit cornea (μg/h/cm2)” value [4]?
A: 30 μg/h/cm2

Q: What about the Colour [5] of the same molecule?
A: White
